Key:
EGFR (wild-type) = EGFR (wild-type) (Homo sapiens, UniProt P00533); experiment: MSA (Mobility Shift Assay) kinase activity, EGFR wild type; assay type: biochemical; details: read-out: EGFR wt/ IC50/nM
Procedure, shortened: (§1)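 Kinase preincubated with compound 10 min at room temperature, then reaction started with ATP plus substrate in 1x kinase buffer and run at room temperature. Substrate-to-product conversion read by mobility shift; % inhibition normalised to no-enzyme and no-compound controls, IC50 from variable-slope four-parameter fit.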

[1] = target: Ba/F3-FL-EGFR-Del19 (E746-A750) (Homo sapiens, UniProt P00533, DEL746-750, cells depend on it); experiment: CellTiter-Glo proliferation, Ba/F3-FL-EGFR-Del19; details: read-out: Ba/F3-FL-EGFR-Del19 (E746-A750), 72 hours
Sequence of Ba/F3-FL-EGFR-Del19 (E746-A750) (P00533 with tags, fused parts or gaps DEL746-750): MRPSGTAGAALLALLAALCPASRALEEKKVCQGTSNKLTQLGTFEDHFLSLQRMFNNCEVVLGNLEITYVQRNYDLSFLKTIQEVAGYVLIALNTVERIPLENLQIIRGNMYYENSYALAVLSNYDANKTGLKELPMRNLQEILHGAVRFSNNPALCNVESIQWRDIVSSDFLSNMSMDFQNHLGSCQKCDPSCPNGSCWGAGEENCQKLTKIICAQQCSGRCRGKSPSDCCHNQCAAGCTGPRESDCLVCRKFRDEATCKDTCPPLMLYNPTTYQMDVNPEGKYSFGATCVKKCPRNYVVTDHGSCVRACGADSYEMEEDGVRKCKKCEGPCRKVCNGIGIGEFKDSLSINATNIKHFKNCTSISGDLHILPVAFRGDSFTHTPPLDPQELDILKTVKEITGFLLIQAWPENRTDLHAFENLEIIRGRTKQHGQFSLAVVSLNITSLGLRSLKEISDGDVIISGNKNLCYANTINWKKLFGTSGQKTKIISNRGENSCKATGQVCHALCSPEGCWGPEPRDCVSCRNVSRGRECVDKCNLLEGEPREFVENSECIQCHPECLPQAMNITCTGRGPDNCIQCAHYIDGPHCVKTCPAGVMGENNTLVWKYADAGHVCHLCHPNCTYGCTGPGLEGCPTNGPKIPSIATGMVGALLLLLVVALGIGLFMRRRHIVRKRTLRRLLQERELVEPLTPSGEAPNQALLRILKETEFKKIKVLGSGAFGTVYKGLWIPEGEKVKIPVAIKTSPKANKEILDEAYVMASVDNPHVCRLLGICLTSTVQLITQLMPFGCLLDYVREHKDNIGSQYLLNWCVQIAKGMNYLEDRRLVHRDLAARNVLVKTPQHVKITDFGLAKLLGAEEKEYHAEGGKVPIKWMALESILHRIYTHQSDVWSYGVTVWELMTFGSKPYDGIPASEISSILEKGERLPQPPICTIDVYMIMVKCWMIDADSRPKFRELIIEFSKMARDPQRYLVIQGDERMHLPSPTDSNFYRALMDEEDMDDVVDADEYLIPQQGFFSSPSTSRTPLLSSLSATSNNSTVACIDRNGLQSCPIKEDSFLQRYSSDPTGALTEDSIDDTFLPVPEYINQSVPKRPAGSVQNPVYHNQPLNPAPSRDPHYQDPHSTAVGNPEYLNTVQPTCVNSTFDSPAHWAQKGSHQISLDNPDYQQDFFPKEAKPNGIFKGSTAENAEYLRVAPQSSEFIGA

Ba/F3-FL-EGFR = target: T1, Ba/F3-FL-EGFR (Homo sapiens, UniProt P00533); experiment: CellTiter-Glo proliferation, Ba/F3-FL-EGFR; assay type: cell-based; details: 72 hours, read-out: Ba/F3-FL-EGFR IC50/nM
T1 construct: FL read as full length
T1 sequence (P00533 whole entry, change not shown): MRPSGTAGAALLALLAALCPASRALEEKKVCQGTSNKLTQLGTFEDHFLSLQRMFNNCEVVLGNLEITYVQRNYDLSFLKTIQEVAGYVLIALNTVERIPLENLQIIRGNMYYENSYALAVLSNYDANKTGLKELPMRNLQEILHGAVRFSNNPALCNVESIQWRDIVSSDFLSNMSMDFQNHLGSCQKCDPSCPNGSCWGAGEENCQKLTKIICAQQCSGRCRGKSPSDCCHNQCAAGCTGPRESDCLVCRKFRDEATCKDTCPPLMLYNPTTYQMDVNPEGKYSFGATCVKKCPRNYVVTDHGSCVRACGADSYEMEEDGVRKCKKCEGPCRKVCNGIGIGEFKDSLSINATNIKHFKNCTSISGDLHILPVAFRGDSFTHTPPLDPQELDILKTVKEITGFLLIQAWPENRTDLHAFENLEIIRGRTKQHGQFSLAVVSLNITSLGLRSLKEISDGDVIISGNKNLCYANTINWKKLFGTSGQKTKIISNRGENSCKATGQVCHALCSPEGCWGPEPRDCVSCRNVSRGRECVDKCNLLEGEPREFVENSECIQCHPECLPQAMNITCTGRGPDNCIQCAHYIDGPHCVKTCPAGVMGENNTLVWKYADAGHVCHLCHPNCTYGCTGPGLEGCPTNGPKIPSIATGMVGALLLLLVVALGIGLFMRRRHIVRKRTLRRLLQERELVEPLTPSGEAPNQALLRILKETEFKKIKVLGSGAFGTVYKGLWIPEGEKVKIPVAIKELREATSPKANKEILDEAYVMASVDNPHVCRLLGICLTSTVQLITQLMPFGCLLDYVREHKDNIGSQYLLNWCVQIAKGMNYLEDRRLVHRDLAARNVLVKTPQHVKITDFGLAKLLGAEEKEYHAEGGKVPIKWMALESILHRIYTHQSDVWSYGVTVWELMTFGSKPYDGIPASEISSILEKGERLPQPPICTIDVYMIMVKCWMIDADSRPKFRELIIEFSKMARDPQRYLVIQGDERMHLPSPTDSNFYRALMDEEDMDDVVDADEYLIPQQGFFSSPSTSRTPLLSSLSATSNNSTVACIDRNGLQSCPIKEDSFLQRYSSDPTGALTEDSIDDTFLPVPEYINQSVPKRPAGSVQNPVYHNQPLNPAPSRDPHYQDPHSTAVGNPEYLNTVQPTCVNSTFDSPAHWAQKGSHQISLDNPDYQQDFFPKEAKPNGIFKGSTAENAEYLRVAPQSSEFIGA
Procedure, shortened: (§2)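 Ba/F3 lines dependent on the indicated EGFR variants were treated with compounds at a final DMSO concentration of 0.1% at 37 °C, 5% CO2. Viability was read by CellTiter-Glo luminescence, and inhibition rate was normalised to DMSO-treated cells (max) and medium-only wells (min). IC50 came from inhibition curves.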

[2] = target: T2, Ba/F3-TEL-EGFR-L858R-C797S (Homo sapiens, UniProt P00533, C797S/L858R, cells depend on it); experiment: CellTiter-Glo proliferation, Ba/F3-TEL-EGFR-L858R-C797S; assay type: cell-based; details: 72 hours, read-out: Ba/F3-TEL-EGFR-L858R-C797S IC50/nM
T2 construct: fused on or other part: N-terminal TEL (ETV6) oligomerising part fused to the EGFR intracellular/kinase part; P41212 (Transcription factor ETV6)
Procedure, shortened: as §2

[3] = target: Ba/F3-FL-EGFR-L858R-T790M-C797S (Homo sapiens, UniProt P00533, T790M/C797S/L858R, cells depend on it); experiment: CellTiter-Glo proliferation, Ba/F3-FL-EGFR-L858R-T790M-C797S; assay type: cell-based; details: 72 hours, read-out: Ba/F3-FL-EGFR-L858R-T790M-C797S IC50/nM
Procedure, shortened: as §2

[4] = system: Ba/F3-FL-EGFR-del19-C797S; experiment: CellTiter-Glo proliferation, Ba/F3-FL-EGFR-del19-C797S; assay type: cell-based; details: 72 h, proliferation, 72 hours, CellTiter-Glo; read-out: Ba/F3-FL-EGFR-del19-C797S IC50/nM
Procedure, shortened: as §2

[5] = target: Ba/F3-FL-EGFR-del19/T790M (Homo sapiens, UniProt P00533, DEL746-750/T790M, cells depend on it); experiment: CellTiter-Glo proliferation, Ba/F3-FL-EGFR-del19/T790M; details: read-out: Ba/F3-FL-EGFR-del19/T790M IC50/nM, 72 hours
Sequence of Ba/F3-FL-EGFR-del19/T790M (P00533 with tags, fused parts or gaps DEL746-750/T790M): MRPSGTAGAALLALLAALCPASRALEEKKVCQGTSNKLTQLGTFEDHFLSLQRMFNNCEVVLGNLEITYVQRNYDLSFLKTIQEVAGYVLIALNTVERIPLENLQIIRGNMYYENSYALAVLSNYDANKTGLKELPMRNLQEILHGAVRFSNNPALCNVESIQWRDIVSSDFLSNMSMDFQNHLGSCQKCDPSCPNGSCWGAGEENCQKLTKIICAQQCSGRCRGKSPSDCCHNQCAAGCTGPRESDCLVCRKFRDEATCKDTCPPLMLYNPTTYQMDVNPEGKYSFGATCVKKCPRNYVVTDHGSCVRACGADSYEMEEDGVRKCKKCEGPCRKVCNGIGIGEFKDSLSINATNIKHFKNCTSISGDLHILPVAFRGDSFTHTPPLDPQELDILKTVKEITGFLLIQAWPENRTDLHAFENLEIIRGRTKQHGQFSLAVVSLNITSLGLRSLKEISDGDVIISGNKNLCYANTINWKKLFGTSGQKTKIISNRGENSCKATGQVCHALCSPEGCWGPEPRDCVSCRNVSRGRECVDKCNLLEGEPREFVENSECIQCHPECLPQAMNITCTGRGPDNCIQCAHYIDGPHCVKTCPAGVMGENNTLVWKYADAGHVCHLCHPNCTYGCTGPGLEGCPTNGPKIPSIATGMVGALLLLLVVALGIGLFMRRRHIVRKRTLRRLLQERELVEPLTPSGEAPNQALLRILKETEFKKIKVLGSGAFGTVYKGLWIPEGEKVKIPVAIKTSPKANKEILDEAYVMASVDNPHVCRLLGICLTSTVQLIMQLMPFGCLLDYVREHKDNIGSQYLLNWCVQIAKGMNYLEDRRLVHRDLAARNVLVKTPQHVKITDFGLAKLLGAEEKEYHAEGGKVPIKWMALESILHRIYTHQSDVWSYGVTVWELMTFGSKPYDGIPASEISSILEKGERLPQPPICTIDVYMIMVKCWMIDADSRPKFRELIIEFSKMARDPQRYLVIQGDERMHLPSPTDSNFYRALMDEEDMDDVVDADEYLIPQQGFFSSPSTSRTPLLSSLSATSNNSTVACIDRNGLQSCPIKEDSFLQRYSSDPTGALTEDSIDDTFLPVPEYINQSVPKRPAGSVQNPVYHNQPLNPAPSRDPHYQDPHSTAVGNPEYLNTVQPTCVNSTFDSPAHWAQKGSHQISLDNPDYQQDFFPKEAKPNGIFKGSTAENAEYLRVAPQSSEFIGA

EGFR (L858R) = EGFR (L858R) (Homo sapiens, UniProt P00533, L858R); experiment: MSA (Mobility Shift Assay) kinase activity, EGFR-L858R; assay type: biochemical
Procedure, shortened: as §1

[6] = system: BaF3 (del19/T790M1C797S) tumor cells; experiment: In vivo efficacy assay in BALB/c nude mice, subcutaneous BaF3 tumor; details: for TGI: based on final tumor volume
Experimental: In vivo efficacy assay in BALB/c nude mice. Details were as follows:
BaF3 (del19/T790M1C797S) tumor cells were cultured and inoculated into 6-8 weeks old female BALB/c nude mice (weighing about 20 g), with all mice being subcutaneously inoculated. The mice were cultured in an SPF-grade experimental environment, and all mice had free access to commercially certified standard diets. When the average tumor volume of the mice grew to about 150 mm^3, the test compound was orally administered daily. The dosage was as follows: blank group vehicle (DMSO/Solutol/H2O, 5/10/85). […] The tumor volume was measured three times a week with a two-dimensional caliper, and the animals were weighed every day. […] The volume calculation formula is: V=1/2a*b^2, where a represents the long diameter of the tumor, and b represents the short diameter of the tumor.

[7] = 100 mg/kg BID oral (50 mg/kg for the first 4 days, 100 mg/kg from the 5th day), after 13 days

Sequence of EGFR (wild-type) (P00533 25-1210): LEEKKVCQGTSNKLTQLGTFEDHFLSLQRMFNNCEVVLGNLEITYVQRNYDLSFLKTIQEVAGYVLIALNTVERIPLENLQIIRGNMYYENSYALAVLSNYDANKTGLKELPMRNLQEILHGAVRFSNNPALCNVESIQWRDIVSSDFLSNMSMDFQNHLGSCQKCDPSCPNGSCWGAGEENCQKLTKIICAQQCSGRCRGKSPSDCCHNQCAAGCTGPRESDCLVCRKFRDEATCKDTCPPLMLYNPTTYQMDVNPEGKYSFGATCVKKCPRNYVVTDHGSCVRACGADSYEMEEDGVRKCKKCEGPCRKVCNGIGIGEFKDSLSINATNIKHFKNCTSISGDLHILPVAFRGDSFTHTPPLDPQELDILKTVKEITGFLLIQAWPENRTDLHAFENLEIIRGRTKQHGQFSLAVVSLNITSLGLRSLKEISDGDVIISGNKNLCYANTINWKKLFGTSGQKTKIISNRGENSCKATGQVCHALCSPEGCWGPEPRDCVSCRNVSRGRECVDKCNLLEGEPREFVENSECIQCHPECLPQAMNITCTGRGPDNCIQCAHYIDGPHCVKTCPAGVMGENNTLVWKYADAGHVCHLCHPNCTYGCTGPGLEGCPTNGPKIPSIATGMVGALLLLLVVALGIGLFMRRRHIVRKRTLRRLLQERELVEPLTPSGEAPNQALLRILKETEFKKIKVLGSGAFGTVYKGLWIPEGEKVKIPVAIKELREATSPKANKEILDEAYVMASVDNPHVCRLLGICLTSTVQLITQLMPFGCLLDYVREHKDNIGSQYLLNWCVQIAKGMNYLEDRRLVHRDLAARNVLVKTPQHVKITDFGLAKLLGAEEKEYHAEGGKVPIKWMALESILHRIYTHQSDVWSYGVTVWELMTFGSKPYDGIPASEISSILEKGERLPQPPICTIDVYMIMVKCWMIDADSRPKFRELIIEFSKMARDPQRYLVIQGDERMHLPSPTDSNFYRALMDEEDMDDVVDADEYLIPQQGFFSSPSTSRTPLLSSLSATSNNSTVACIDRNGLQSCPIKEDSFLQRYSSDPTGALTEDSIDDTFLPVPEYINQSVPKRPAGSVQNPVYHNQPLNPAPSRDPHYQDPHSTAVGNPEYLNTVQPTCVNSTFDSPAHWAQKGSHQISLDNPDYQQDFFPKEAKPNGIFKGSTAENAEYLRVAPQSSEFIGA

IC50 (EGFR (wild-type)) [nM] | GI50 [1] [nM] | GI50 (Ba/F3-FL-EGFR) [nM] | GI50 [2] [nM] | GI50 [3] [nM] | IC50 [4] [nM] | GI50 [5] [nM] | IC50 (EGFR (L858R)) [nM] | Compound | Tumor volume (mm^3) ([6]; 100 mg/kg, BID, oral, after 13 consecutive days of administration) | TGI ([6]; 100 mg/kg, BID, oral, after 13 consecutive days) [%] | Tumor volume (mm^3) [6, 7] [mm^3] | TGI [6, 7] [%]
9.4 | 41 | 670 | 14 | 8.8 | 52 | 4.4 | 1.1 | CC(C)c1ccc(N2CC(N(C)S(C)(=O)=O)C2)c2cnc(Nc3ccnc(N4CC[C@@H](O)[C@@H](F)C4)n3)cc12 [Compound P39a] | 945 | 79 |  | 
1.9 | 15 | 209 | 5.8 | 16 | 4.3 | 5.1 | 0.51 | CC(C)c1ccc(N2C[C@H](CS(C)(=O)=O)[C@H]2C)c2cnc(Nc3ccnc(-c4cnn(S(=O)(=O)C5CC5)c4)n3)cc12 [Compound H12] |  |  | 1341 | 68

— patent US20250092017A1, “2-PIPERIDYL OR 2-PYRAZOLYL SUBSTITUTED PYRIMIDINE COMPOUND SERVING AS EGFR INHIBITOR” (SUZHOU PUHE BIOPHARMA CO., LTD., priority 2022, published 2025)
